Data published in US7517905B2, “Substituted azabicyclo hexane derivatives as muscarinic receptor antagonists” (Ranbaxy Laboratories Limited, priority 2003, dated 2009).

Key:
M2 muscarinic receptor = biological target: T1, M2 muscarinic receptor (Rattus norvegicus, UniProt P10980); test: Radioligand binding assay, [3H]-N-methyl scopolamine, rat heart membranes; conditions: [3H]NMS displacement, Ki by Cheng & Prusoff; for Ki: read-out: Receptor Binding Assay M2 pKi (converted)
T1 construct: Submandibular glands and heart were isolated and placed in ice cold homogenizing buffer; from tissue; host or cells: rat heart membrane homogenate
T1 sequence (P10980 1-466): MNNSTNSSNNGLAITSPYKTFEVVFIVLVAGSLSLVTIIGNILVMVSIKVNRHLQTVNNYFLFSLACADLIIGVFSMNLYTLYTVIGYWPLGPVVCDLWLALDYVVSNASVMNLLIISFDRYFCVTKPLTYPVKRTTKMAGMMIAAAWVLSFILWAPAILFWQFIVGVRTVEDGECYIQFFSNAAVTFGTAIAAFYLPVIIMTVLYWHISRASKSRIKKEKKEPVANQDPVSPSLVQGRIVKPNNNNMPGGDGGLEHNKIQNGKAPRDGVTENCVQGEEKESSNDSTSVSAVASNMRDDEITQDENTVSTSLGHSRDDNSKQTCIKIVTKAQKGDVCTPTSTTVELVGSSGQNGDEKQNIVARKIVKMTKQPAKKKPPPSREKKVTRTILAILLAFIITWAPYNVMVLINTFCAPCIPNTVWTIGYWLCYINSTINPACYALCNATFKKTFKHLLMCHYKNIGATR
Experimental: The affinity of test compounds for M2 and M3 muscarinic receptor subtypes was determined by [^3H]—N-methyl scopolamine binding studies using rat heart and submandibular gland, respectively as described by Moriya et al., (Life Sci, 1999, 64(25): 2351-2358).
(§1) Membrane preparation: Submandibular glands and heart were isolated and placed in ice cold homogenizing buffer (HEPES 20 mM, 10 mM EDTA, and pH 7.4) immediately after sacrifice. The tissues were homogenized in 10 volumes of homogenizing buffer and the homogenate was filtered through two layers of wet gauze and filtrate was centrifuged at 500 g for 10 min. The supernatant was subsequently centrifuged at 40.000 g for 20 min. The pallet thus obtained was resuspended in same volume of assay buffer (HEPES 20 mM, EDTA 5 mM, pH 7.4) and were stored at −70° C. until the time of assay.
Ligand binding assay: The compounds were dissolved and diluted in dimethylsulfoxide. The membrane homogenates (150-250 μg protein) were incubated in 250 ul of assay buffer HEPES 20 mM, pH 7.4) at 24-25° C. for 3 hour. Non-specific binding was determined in the presence of 1 μM atropine. The incubation was terminated by vacuum filtration over GF/B fiber filters (Wallac). The filters were then washed with ice-cold 50 mM Tris HCI buffer (pH 7.4). The filter mats were dried and bound radioactivity retained on filters was counted. The IC50 & Kd were estimated by using the non-linear curve-fitting program using G Pad Prism software. The value of inhibition constant Ki was calculated from competitive binding studies by using Cheng & Prusoff equation (Biochem Pharmacol, 1973.22: 3099-3108), Ki=IC50/(1+L/Kd), where L is the concentration of [^3H]NMS used in the particular experiment. pKi=−log Ki Functional Experiments using Isolated Rat Bladder: Methodology: […]

M3 muscarinic receptor = biological target: T2, M3 muscarinic receptor (Rattus norvegicus, UniProt P08483); test: Radioligand binding assay, [3H]-N-methyl scopolamine, rat submandibular gland membranes; conditions: [3H]NMS displacement, Ki by Cheng & Prusoff; for Ki: read-out: Receptor Binding Assay M3 pKi (converted)
T2 construct: Submandibular glands and heart were isolated and placed in ice cold homogenizing buffer; from tissue; host or cells: rat submandibular gland membrane homogenate
T2 sequence (P08483 whole entry): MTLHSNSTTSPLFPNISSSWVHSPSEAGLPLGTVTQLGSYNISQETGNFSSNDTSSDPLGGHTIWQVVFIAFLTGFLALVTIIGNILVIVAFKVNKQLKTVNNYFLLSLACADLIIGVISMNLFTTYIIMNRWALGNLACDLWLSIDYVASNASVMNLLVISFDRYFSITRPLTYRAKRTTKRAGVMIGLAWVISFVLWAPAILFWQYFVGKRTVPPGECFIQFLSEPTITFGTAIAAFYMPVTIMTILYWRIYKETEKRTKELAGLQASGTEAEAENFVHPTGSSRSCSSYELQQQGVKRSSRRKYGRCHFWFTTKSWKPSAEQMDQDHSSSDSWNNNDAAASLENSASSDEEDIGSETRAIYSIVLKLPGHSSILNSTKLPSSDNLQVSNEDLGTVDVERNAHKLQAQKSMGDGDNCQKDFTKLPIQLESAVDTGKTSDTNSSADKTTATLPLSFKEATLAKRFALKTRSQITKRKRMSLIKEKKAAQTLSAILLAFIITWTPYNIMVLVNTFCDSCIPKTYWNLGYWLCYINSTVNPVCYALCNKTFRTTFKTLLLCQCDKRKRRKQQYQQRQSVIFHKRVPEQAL
Experimental: as §1
Ligand binding assay: The compounds were dissolved and diluted in dimethylsulfoxide. The membrane homogenates (150-250 μg protein) were incubated in 250 ul of assay buffer HEPES 20 mM, pH 7.4) at 24-25° C. for 3 hour. Non-specific binding was determined in the presence of 1 μM atropine. The incubation was terminated by vacuum filtration over GF/B fiber filters (Wallac). The filters were then washed with ice-cold 50 mM Tris HCI buffer (pH 7.4). The filter mats were dried and bound radioactivity retained on filters was counted. The IC50 & Kd were estimated by using the non-linear curve-fitting program using G Pad Prism software.

isolated rat bladder = test: Functional experiments using isolated rat bladder (carbachol concentration response curve); type: cell-based; conditions: isolated rat bladder strips, carbachol-induced contraction, antagonist added 20 min before second CRC; for Kb: read-out: Functional Assay pKB (converted)
Experimental: Animals were euthanized by overdose of urethane and whole bladder was isolated and removed rapidly and placed in cold Tyrode buffer with the following composition (mMol/L) sodium chloride 137; KCl 2.7, CaCl2 1.8, MgCl2 0.1; NaHCO3 11.9, NaH2PO4 0.4; Glucose 5.55 and continuously gassed with 95% O2 and 5% CO2
The bladder was cut into longitudinal strips (3 mm wide and 5-6 mm long) and mounted in 10 ml organ baths at 30° C., with one end connected to the base of the tissue holder and the other end connected to a polygraph through a force displacement transducer. Each tissue was maintained at a constant basal tension of 2 g and allowed to equilibrate for 1 hour during which the PSS was changed every 15 min. At the end of equilibration period, the stabilization of the tissue contractile response was assessed with 1 u mol/L of carbachol consecutively for 2-3 times. Subsequently, a cumulative concentration response curve to carbachol (10^−9 mol/L to 3×10^−5 mol/L) was obtained. After several washes, once the baseline was achieved, cumulative concentration response curve was obtained in the presence of NCE (NCE added 20 min. prior to the second CRC).
The contractile results were expressed as % of control E max ED50 values were calculated by fitting a non-linear regression curve (Graph Pad Prism). PKB values were calculated by the formula pKB=−log [(molar concentration of antagonist/(dose ratio-1))] where,
dose ratio=ED50 in the presence of antagonist/ED50 in the absence of antagonist.

Compound | Receptor Binding Assay M2 pKi (M2 muscarinic receptor) | Receptor Binding Assay M3 pKi (M3 muscarinic receptor) | Ki (M2 muscarinic receptor) | Ki (M3 muscarinic receptor) | Functional Assay pKB (isolated rat bladder) | Kb (isolated rat bladder)
3-(2-methoxy-5-methylphenyl)-3-phenylpropanoic acid-4-[(3-azabicyclo[3.1.0]hex-6-yl]-ethoxy carbonylamino]butyl ester [Compound No. 5] | <6 | <6 | – | – | 5.15 | –
Cc1ccc(O)c(C(CCNC2C3CN(Cc4ccccc4)CC32)c2ccccc2)c1 (single isomer, unassigned) [Compound No. 16, (R or S)—N-(3-benzy-1-3-azabicyclo[3.1.0]hex-6-yl]-[3-(2-hydroxy-5-methylphenyl)-3-phenylpropyl]amine] | – | – | – | – | 7.25 ± 0.15 | –
Cc1ccc(O)c(C(CC(=O)OCCCCNOCCC2C3CNCC23)c2ccccc2)c1 (centres unmarked) [Compound No. 6, 3-(2-hydroxy-5-methylphenyl)-3-phenylpropionic acid 4-[(3-azabicyclo[3.1.0]hex-6-yl)ethoxyamino]butyl ester] | <6 | <6 | – | – | 5.84 | –
COc1ccc(C)cc1C(CC(=O)OCC(=O)NC1C2CNCC21)c1ccccc1 (centres unmarked) [Compound No. 7, 3-(2-methoxy-5-methylphenyl)-3-phenylpropionic acid-(3-azabicyclo[3.1.0]hex-6-ylcarbamoyl)methyl ester] | – | – | > 1000 nM | > 1000 nM | – | 2510 nM
COc1ccc(C)cc1C(CC(=O)NCC(=O)N[C@H]1[C@@H]2CN(Cc3ccccc3)C[C@@H]21)c1ccccc1 (some centres unmarked) [Compound No. 10, N-[(3-benzyl-3-azabicyclo[3.1.0]hex-6-ylcarbamoyl]-methyl]-3(-2-methoxy-5-methylphenyl)-3-phenyl propionamide] | – | – | > 1000 nM | > 1000 nM | – | 1950 nM
Cc1ccc(O)c(C(CC(=O)N[C@H]2[C@@H]3CN(Cc4ccccc4)C[C@@H]32)c2ccccc2)c1 (some centres unmarked) [Compound No. 11, N-(3-benzyl-3-azabicyclo[3.1.0]hex-6-yl)-3-(2-hydroxy-5-methylphenyl)-3-phenyl propionamide] | – | – | > 1000 nM | > 1000 nM | – | 6760 nM
CCOC(=O)N(CCCCOC(=O)CC(c1ccccc1)c1cc(C)ccc1OC)C1C2CN(Cc3ccccc3)CC21 (centres unmarked) [Compound No. 12, 3-(2-methoxy-5-methylphenyl)-3-phenylpropionic acid-4-[(3-benzyl-3-azabicyclo[3.1.0]hex-6-yl)-ethoxycarbonylamino]butyl ester] | <6 | <6 | – | – | 6.72 | –
Cc1ccc(O)c([C@H](CCN(C(C)C)C(C)C)c2ccccc2)c1 [Tolterodine, reference compound] | – | – | – | – | – | 1.38 nM

Now from value to compound, other results behind:

Receptor Binding Assay M2 pKi (M2 muscarinic receptor) | Receptor Binding Assay M3 pKi (M3 muscarinic receptor) | Ki (M2 muscarinic receptor) | Ki (M3 muscarinic receptor) | Compound | Functional Assay pKB (isolated rat bladder) | Kb (isolated rat bladder)
– | – | > 1000 nM | > 1000 nM | COc1ccc(C)cc1C(CC(=O)OCC(=O)NC1C2CN(Cc3ccccc3)CC21)c1ccccc1 (centres unmarked) [Compound No. 1, 3-(2-Methoxy-5-methylphenyl)-3-phenyl propanoic acid-(3-benzyl-3-azabicyclo[3.1.0]hexane-6-yl-carbamoyl)methyl ester] | – | 9770 nM
– | – | > 1000 nM | > 1000 nM | Cc1ccc(OCc2ccccc2)c(C(CC(=O)OCC(=O)NC2C3CN(Cc4ccccc4)CC32)c2ccccc2)c1 (centres unmarked) [Compound No. 2, 3-(2-benzyloxy-5-methylphenyl)-3-phenyl propanoic acid-(3-benzyl-3-azabicyclo[3.1.0]-hex-6-ylcarbamoyl)-methyl ester] | – | 6760 nM
<6 | <6 | – | – | Cc1ccc(O)c(C(CC(=O)NC2C3CNCC32)c2ccccc2)c1 (centres unmarked) [Compound No. 3, N-(3-azabicyclo[3.1.0]hex-6-yl)-3-(2-hydroxy-5-methylphenyl)-3-phenyl-1-propanoic acid] | 5.95 | –
<6 | <6 | – | – | COc1ccc(C)cc1C(CC(=O)NC1C2CNCC21)c1ccccc1 (centres unmarked) [Compound No. 4, N-(3-azabicyclo[3.1.0]hex-6-yl)-3-(2-methoxy-5-methylphenyl)-3-phenyl-1-propionamide] | 5.64 | –
– | – | > 1000 nM | > 1000 nM | Cc1ccc(O)c(C(CC(=O)OCC(=O)NC2C3CNCC32)c2ccccc2)c1 (centres unmarked) [Compound No. 8, 3-(2-hydroxy-5-methylphenyl)-3-phenylpropionic acid-(3-azabicyclo[3.1.0]hex-6-ylcarbamoyl)methyl ester] | No blockade | –
– | – | > 1000 nM | > 1000 nM | Cc1ccc(O)c(C(CC(=O)NCC(=O)NC2C3CN(Cc4ccccc4)CC32)c2ccccc2)c1 (centres unmarked) [Compound No. 9, N-[(3-benzyl-3-azabicyclo[3.1.0]hex-6-ylcarbamoyl)-methyl]-3-(2-hydroxy-5-methylphenyl)-3-phenyl-propionamide] | – | 1910 nM
